Reference: patent US12391701B2, “Chromene-based compounds, methods and uses thereof” (University of Minho, priority 2019, dated 2025)

Experiments:
Format in all cases: cell-based
[1] = tested on: breast cancer cell line MCF-7; test: Cell viability assay (MTS), MCF-7; settings: Homo sapiens, MCF7; 72 h incubation
Method: (§1) In an embodiment, the cell growth inhibition and IC50 values of the synthesised and isolated chromene-based compounds were determined as part of the evaluation of the antiproliferative activity of the isolated agents. A complete study on the structure-activity relationship was performed for all the synthesised compounds. The antiproliferative activity against MCF-7 breast cancer cell lines were analysed. […] The non-neoplastic cell line MCF-10A was also used to determine the selectivity of the compounds for the tumour cells. For compounds with an IC50 value (concentration required to reduce cell viability by 50%) higher than 20 μM, the IC50 value was not determined. Selectivity index (SI) was calculated in order to evaluate the cytotoxicity of the tested compounds.
(§2) In an embodiment, three human breast cancer cell lines Hs578T, MDA-MB-468 and MCF-7, and a normal breast cell line MCF-10A, were obtained from ATCC (American Type Culture Collection). The cancer cell lines were cultured in Dulbecco's modified Eagle medium, 4.5 g/l glucose (DMEM, Gibco) supplemented with 10% heating inactivated Fetal Bovine Serum (FBS, Gibco) and 1% antibiotic solution (Penicillin-Streptomycin, Gibco). The normal cell line was cultured in Dulbecco's Modified Eagle Medium: Nutrient Mixture F-12 (DMEM/F12, Gibco) supplemented with 5% heating inactivated FBS (Gibco), 1% antibiotic solution (Penicillin-Streptomycin, Gibco), 1% steroid hormone (Hydrocortisone, Sigma-Aldrich), 0.1% peptide hormone (Insulin, Sigma-Aldrich) and 0.01% protein complex (Cholera Toxin, Gibco). Two distinct human acute myeloid leukemia (AML) cell lines, HL-60 (FAB M2) and KG-1 (erythroleukemia-FAB M6), and one human lymphoblastic leukemia (ALL) cell line, Jurkat (T cell type), were also used. These three cell lines were obtained from German Collection of Microorganisms and Cell cultures (DMSZ®, Deutsche Sammlung von Mikroorganismen and Zellkulturen in German). Cells were cultured in RPMI 1640 medium (Biochrom®-Merck Millipore) supplemented with 10% heating inactivated FBS (Biochrom®-Merck Millipore) and 1% antibiotic/antimitotic mixture (Invitrogen®). Three human glioblastoma (GBM) cell line models, two established and commercially available cell lines (U87MG and GAMG, kind gift from Rui M. Reis) and one primary GBM culture (GLIB) were also used. GBM cells were cultures in DMEM (Biochrom-Merck Millipore), all supplemented with 10% FBS. The Renal cell carcinoma cell lines A498, 786-O, Caki-2 and HK2 were obtained from ATCC. The cancer cell line A498 was cultured in MEM medium (Biochrom®-Merck Millipore), 786-O was cultured in RPMI 1640 medium (Biochrom®-Merck Millipore), Caki-2 was cultured in Mc Coys medium (Biochrom®-Merck Millipore) and HK2 was cultured in RPMI 1640 medium (Biochrom®-Merck Millipore). All the media were supplemented with 10% heat inactivated FBS (Biochrom®-Merck Millipore) and 1% antibiotic/antimitotic mixture (Invitrogen®). All cells were grown in a humidified incubator at 37° C. and 5% CO2. For all assays, DMSO (Dimethyl Sulfoxide, Sigma-Aldrich) controls were used.
(§3) In an embodiment, cell viability assays were performed. MCF-7, Hs578T and MCF-10A cells were plated in triplicate in 96-multiwell culture plates, at 3000 cells […], or 5000 cells […] for MDA-MB-468 (100 μL/well). The cells were then allowed to adhere in complete medium, over a period of 18-20 hours. Cells were subsequently treated with 7 different concentrations (from 0.1 to 40 μM or 5 to 60 μM) of compounds or control in fresh medium. HL-60, KG-1 and Jurkat cell lines were plated in 96-multiwell culture plates at 50.000 cells/100 μL per well and treated with different concentrations (from 0.001 to 2 μM) of the compounds described (or control). Cells were plated, in triplicate, at an initial density of 2000 cells/well for GAMG, 4000 cells/well for GL18 and 6000 cells/well for U87MG, in 96-well plates, and allowed to adhere for 18-20 hours. […]

[2] = tested on: non-neoplastic cell line MCF-10A; test: Cell viability assay (MTS), MCF-10A; settings: Homo sapiens, 72 h incubation
Method: as §1, §2, §3

[3] = tested on: TNBC cell line MDA-MB-231; test: Cell viability assay, MDA-MB-231; settings: Homo sapiens
[4] = tested on: TNBC cell line Hs578t; test: Cell viability assay (MTS), Hs578t; settings: Homo sapiens, Hs-578T; 72 h incubation
From the text: In an embodiment, for a comparison study, monomers and respective dimers were selected and further evaluated in Hs578t and MDA-MB-468 breast cell lines. […] These cell lines correspond to the basal-like subtype of breast cancer, included in the known triple negative subtype, since they are negative for Estrogen receptor (ER), progesterone receptor (PR) and Human epidermal growth factor receptor 2 (HER2) molecular markers. The clinical behaviour of these breast cancer subtype is very aggressive and there is still no specific molecular therapy available.
as §2
(§4) In an embodiment, cell viability assays were performed. MCF-7, Hs578T and MCF-10A cells were plated in triplicate in 96-multiwell culture plates, at 3000 cells […], or 5000 cells […] for MDA-MB-468 (100 μL/well). The cells were then allowed to adhere in complete medium, over a period of 18-20 hours. Cells were subsequently treated with 7 different concentrations (from 0.1 to 40 μM or 5 to 60 μM) of compounds or control in fresh medium. HL-60, KG-1 and Jurkat cell lines were plated in 96-multiwell culture plates at 50.000 cells/100 μL per well and treated with different concentrations (from 0.001 to 2 μM) of the compounds described (or control). Cells were plated, in triplicate, at an initial density of 2000 cells/well for GAMG, 4000 cells/well for GL18 and 6000 cells/well for U87MG, in 96-well plates, and allowed to adhere for 18-20 hours. Cells were then treated with different concentrations of the compounds (0.005 to 100 μM) or with control. […]

[5] = tested on: renal carcinoma cell lines; test: First screen against renal carcinoma cell lines; settings: IC50 determination not pursued
From the text: (§5) In an embodiment, the antiproliferative activity of the compounds was further determined against renal carcinoma cell lines and non-neoplastic kidney cell line.

[6] = tested on: renal carcinoma cell line 786-O; test: Cell viability (sulforhodamine B), 786-O; settings: Homo sapiens, 786-0; Table 5
Method: as §5, §2
as §4, with “control. A498 and 786-O cells were plated at 2000 cells per mL, Caki-2 cells were plated at 3000 cells per mL and HK2 cells were plated at 2000 cells per mL in triplicate, in 96-multiwell culture plates (100 μL/well), and allowed to adhere over a period of 18-20 hours in complete medium. The cells were then treated with 7 different concentrations (from 0.1 to 40 μM or 5 to 60 μM) of compounds or control in fresh medium.” for “control.”

[7] = tested on: renal carcinoma cell line A498; test: Cell viability (sulforhodamine B), A498; settings: Homo sapiens, Table 5
Method: as §5, §2
as §4, with “control. A498 and 786-O cells were plated at 2000 cells per mL, Caki-2 cells were plated at 3000 cells per mL and HK2 cells were plated at 2000 cells per mL in triplicate, in 96-multiwell culture plates (100 μL/well), and allowed to adhere over a period of 18-20 hours in complete medium. The cells were then treated with 7 different concentrations (from 0.1 to 40 μM or 5 to 60 μM) of compounds or control in fresh medium.” for “control.”

[8] = tested on: non-neoplastic cell line (HK2); test: Cell viability, HK2; settings: Table 5; read-out: IC50 HK2
Method: as §5, §2
as §4, with “control. A498 and 786-O cells were plated at 2000 cells per mL, Caki-2 cells were plated at 3000 cells per mL and HK2 cells were plated at 2000 cells per mL in triplicate, in 96-multiwell culture plates (100 μL/well), and allowed to adhere over a period of 18-20 hours in complete medium. The cells were then treated with 7 different concentrations (from 0.1 to 40 μM or 5 to 60 μM) of compounds or control in fresh medium.” for “control.”

[9] = tested on: renal carcinoma cell line Caki-2; test: Cell viability (sulforhodamine B), Caki-2; settings: Homo sapiens, Table 5
Method: as §5, §2
as §4, with “control. A498 and 786-O cells were plated at 2000 cells per mL, Caki-2 cells were plated at 3000 cells per mL and HK2 cells were plated at 2000 cells per mL in triplicate, in 96-multiwell culture plates (100 μL/well), and allowed to adhere over a period of 18-20 hours in complete medium. The cells were then treated with 7 different concentrations (from 0.1 to 40 μM or 5 to 60 μM) of compounds or control in fresh medium.” for “control.”

SMILES	IC50 [1] [nM]	IC50 [2] [nM]	IC50 [3] [nM]	IC50 [4] [nM]	biological activity in a first screen [5]	IC50 [6] [nM]	IC50 [7] [nM]	IC50 [8] [nM]	IC50 [9] [nM]
COc1cccc(-c2nc3c([nH]2)Cc2cccc(OC)c2O3)c1O [Compound M955]	4150	> 30000	15700	> 20000	did not demonstrate any biological activity				
Oc1ccc(Cl)cc1-c1nc2c([nH]1)Cc1cc(Cl)ccc1O2 [Compound M1143]	> 30000		> 30000	> 30000	did not demonstrate any biological activity				
Oc1ccccc1-c1nc2c([nH]1)Cc1ccccc1O2 [Compound M1159]	3680	> 30000	10400			3040	13600	5610	
COc1ccc2c(c1)Cc1[nH]c(-c3cc(OC)ccc3O)nc1O2 [Compound M1220]	5850	> 30000		> 30000	did not demonstrate any biological activity				
Oc1ccc(Br)cc1-c1nc2c([nH]1)Cc1cc(Br)ccc1O2 [Compound M1221]	> 30000		> 30000		did not demonstrate any biological activity				
COc1cccc2c1Oc1nc(-c3cccc(F)c3)[nH]c1C2 [MC349, 2-(3-fluorophenyl)-5-methoxy-3,9-dihydrochromeno[2,3-d]imidazoles]	770	2300	1230	640		446	1120	2630	440
COc1cccc2c1Oc1nc(-c3cccc(O)c3)[nH]c1C2 [MC359, 3-(5-methoxy-3,9-dihydrochromeno[2,3-d]imidazol-2-yl)phenol]	2820	6660	2700	3480		3210	2450	5290	2340
COc1cccc2c1Oc1nc(-c3ccc(Cl)cc3)[nH]c1C2 [MC412, 2-(4-chlorophenyl)-5-methoxy-3,9-dihydrochromeno[2,3-d]imidazoles]	440	1740	1670	980		32	290	1630	39
